Results on five compounds are retold here after paper PMC12118337, “Development of a Peptide Inhibitor Targeting the C‐SH2 Domain of the SHP2 Phosphatase” (Chembiochem, 2025).

Like-named read-outs stand apart in the source and are kept apart here. Non-standard residues stand in square brackets, D forms with d. Residues, ends and D or L forms follow the SMILES beside them. *: point of attachment. F2Pmp = N[C@@H](Cc1ccc(C(F)(F)P(=O)(O)O)cc1)C(=O)O; Pmp = N[C@@H](Cc1ccc(CP(=O)(O)O)cc1)C(=O)O; pY = N[C@@H](Cc1ccc(OP(=O)(O)O)cc1)C(=O)O; X1 = O=C(O)C(C(=O)O)*

For assay [1], the target named is T1, full‐length SHP2 (Homo sapiens, UniProt Q06124).
T1 construct: 1–525) proteins were prepared; His-SUMO3 (pETM11-SUMO3 vector) (N, cleaved yes); made in house; host or cells: E. coli BL21(DE3)
T1 sequence (Q06124 1-525): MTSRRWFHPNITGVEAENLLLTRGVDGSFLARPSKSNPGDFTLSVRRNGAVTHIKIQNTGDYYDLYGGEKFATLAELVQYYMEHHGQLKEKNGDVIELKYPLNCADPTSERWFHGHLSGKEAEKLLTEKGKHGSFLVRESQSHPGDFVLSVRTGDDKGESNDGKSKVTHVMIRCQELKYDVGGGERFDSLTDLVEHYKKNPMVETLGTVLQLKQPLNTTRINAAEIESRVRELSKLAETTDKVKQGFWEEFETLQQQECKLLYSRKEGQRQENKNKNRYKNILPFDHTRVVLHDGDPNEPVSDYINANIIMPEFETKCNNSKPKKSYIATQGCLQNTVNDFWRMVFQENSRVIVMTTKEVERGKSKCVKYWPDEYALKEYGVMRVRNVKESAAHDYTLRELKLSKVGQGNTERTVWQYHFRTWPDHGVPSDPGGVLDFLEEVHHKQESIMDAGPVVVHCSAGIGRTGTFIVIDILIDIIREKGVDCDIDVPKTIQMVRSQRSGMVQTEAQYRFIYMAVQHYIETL
The assay can be described thus: DiFMUP phosphatase assay, peptide inhibition in the presence of ITIM-[dPEG4]2-ITSM activator. Format: biochemical. The note with it: for inhibitory activity against SHP2, in words: DiFMUP, 0.5 nM FL SHP2 activated with 26 nM tandem peptide, compared to peptide 21. As to the method:
(§1) 6. DiFMUP phosphatase assays
SHP2 dephosphorylation of the fluorogenic substrate 6,8-difluoro-4-methylumbiliferyl phosphate (DiFMUP) was measured to evaluate the effect of acetylated peptides on SHP2 activity. Final concentrations of 0.5 nM full-length SHP2, 200 µM DiFMUP (Invitrogen) and 26 nM bisphosphorylated tandem ITIM-[dPEG4]2-ITSM (CASLO ApS) were used, unless stated otherwise, per well in 96-well plates (OptiPlate-96 F Black; PerkinElmer). For peptide activation assays, each well contained 60 µL of reaction buffer (50 mM HEPES pH 7.6, 150 mM NaCl, 1 mM EDTA, 0.05% Tween 20, freshly added 5 mM DTT), 10 µL of SHP2 and 20 µL of the test peptide (0.096 nM – 51.2 µM final concentration). For peptide inhibition assays in the presence of a SHP2 activator, each well contained 40 µL of reaction buffer (50 mM HEPES pH 7.6, 150 mM NaCl, 1 mM EDTA, 0.05% Tween 20, freshly added 5 mM DTT), 10 µL of SHP2 and 40 µL of previously mixed bisphosphorylated tandem ITIM-[dPEG4]2-ITSM activator and test peptide (0.096 nM – 51.2 µM or 0.376 nM – 200 µM final concentration). To obtain the maximal activity, 10 µL of SHP2 and 20 µL of bisphosphorylated tandem ITIM-[dPEG4]2-ITSM activator was added to 60 µL of buffer. Samples were incubated for 20 minutes at room temperature and then 10 µL of DiFMUP was added to each sample, to give a final volume of 100 µL per well. For background subtraction, 10 µL of DiFMUP was added to 80 µL of buffer. The fluorescence was immediately measured on a Synergy H1 Microplate Reader (BioTek) with the excitation and emission monitored at 358 nm and 452 nm, respectively, over 30 minutes. Data were analysed in Excel 2016 by subtracting background values from emission values and calculating the slope of the emission profiles. Data were then further analysed in GraphPad Prism 6 by either: 1) plotting the slope against the peptide concentration and fitting the data to a variable slope model of non-linear regression; or 2) normalising the data to the maximal activity (SHP2 in the presence of ITIM-[dPEG4]2-ITSM; set to 100% activity) to obtain the % activity, plotting the % activity against the peptide concentration and fitting the data to a variable slope model of non-linear regression to obtain the IC50 values. Data are from two or three independent experiments, each performed in […]

In assay [2] the target is T1, full‐length SHP2. The assay can be described thus: DiFMUP phosphatase assay, peptide activation (no activator). Type of assay: biochemical. The note with it: 0.5 nM full-length SHP2, no tandem activator, peptide 0.096 nM – 51.2 µM. As for the experimental part:
as §1
SHP2 dephosphorylation of the fluorogenic substrate 6,8-difluoro-4-methylumbiliferyl phosphate (DiFMUP) was measured to evaluate the effect of acetylated peptides on SHP2 activity. Final concentrations of 0.5 nM full-length SHP2, 200 µM DiFMUP (Invitrogen) and 26 nM bisphosphorylated tandem ITIM-[dPEG4]2-ITSM (CASLO ApS) were used, unless stated otherwise, per well in 96-well plates (OptiPlate-96 F Black; PerkinElmer). For peptide activation assays, each well contained 60 µL of reaction buffer (50 mM HEPES pH 7.6, 150 mM NaCl, 1 mM EDTA, 0.05% Tween 20, freshly added 5 mM DTT), 10 µL of SHP2 and 20 µL of the test peptide (0.096 nM – 51.2 µM final concentration). For peptide inhibition assays in the presence of a SHP2 activator, each well contained 40 µL of reaction buffer (50 mM HEPES pH 7.6, 150 mM NaCl, 1 mM EDTA, 0.05% Tween 20, freshly added 5 mM DTT), 10 µL of SHP2 and 40 µL of previously mixed bisphosphorylated tandem ITIM-[dPEG4]2-ITSM activator and test peptide (0.096 nM – 51.2 µM or 0.376 nM – 200 µM final concentration). […] The fluorescence was immediately measured on a Synergy H1 Microplate Reader (BioTek) with the excitation and emission monitored at 358 nm and 452 nm, respectively, over 30 minutes. Data were analysed in Excel 2016 by subtracting background values from emission values and calculating the slope of the emission profiles. […]

The test system of assay [3] is full‐length SHP2 or isolated PTP domain. The assay is described as follows: EnzChek phosphate assay (peptide as substrate). Type of assay: biochemical. Particulars: 50 nM full-length SHP2 or PTP domain, peptide 25–800 µM, absorbance 360 nm, three independent experiments. As for the experimental part:
7. EnzChek phosphate assays
The EnzChek Phosphate Assay Kit (Thermo Fisher Scientific), which measures the release of inorganic phosphate generated from an enzymatic reaction, was used to evaluate Ac-ITSM(pTyr) and acetylated peptide 21 as potential substrates of SHP2. A reaction mixture consisting of 43 µL of dH2O, 0.5 µL of 1 M DTT ([…]), 5 µL of 20X reaction buffer, 20 µL of 2-amino-6-mercapto-7-methylpurine riboside (MESG) solution, 1.5 µL of purine nucleoside phosphorylase (PNP) solution and 10 µL of 0.5 µM full-length SHP2 or PTP domain (50 nM final concentration) was added to each well in a 96-well plate (SpectraPlate-96 MB; PerkinElmer). Samples were incubated for 10 minutes at room temperature and then 20 µL of Ac-ITSM(pTyr) or peptide 21 (final concentrations: 800 µM, 400 µM, 200 µM, 100 µM, 25 µM) was added to give a final volume of 100 µL per well. The absorbance was immediately measured at 360 nm on a Synergy H1 Microplate Reader (BioTek).
Data were analysed in GraphPad Prism 6 by plotting the absorbance against the peptide concentration. Data are from three independent experiments, each performed in technical triplicates.

The target of the next assay is T2, SHP2 C‐SH2 domain (Homo sapiens, UniProt Q06124).
T2 construct: SHP2 N-SH2 domain (1–105), C-SH2 domain (106–220), PTP domain (224–541) and; His6 (pETM22 vector) (N, cleaved yes); made in house; host or cells: E. coli BL21(DE3)
T2 sequence (Q06124 106-220): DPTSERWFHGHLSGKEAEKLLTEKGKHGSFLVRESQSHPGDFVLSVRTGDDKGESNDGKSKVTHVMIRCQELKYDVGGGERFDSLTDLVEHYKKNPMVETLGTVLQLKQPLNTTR
The note with it: ITC, previously reported; read-out: previously reported ITC K D, C‐SH2; cited from earlier work. (In general: Isothermal titration calorimetry measures the heat released or taken up as one component is titrated into another.)

Another assay addresses T3, SHP2 N‐SH2 domain (Homo sapiens, UniProt Q06124).
T3 construct: SHP2 N-SH2 domain (1–105), C-SH2 domain (106–220), PTP domain (224–541) and; His6 (pETM22 vector) (N, cleaved yes); made in house; host or cells: E. coli BL21(DE3)
T3 sequence (Q06124 1-105): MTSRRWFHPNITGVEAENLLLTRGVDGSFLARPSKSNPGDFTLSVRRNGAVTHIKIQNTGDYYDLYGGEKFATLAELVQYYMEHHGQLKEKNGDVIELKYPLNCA
The note with it: ITC, previously reported; read-out: previously reported ITC K D, N‐SH2; cited from earlier work.

Setting [4] is: 0.5 nM full-length SHP2 activated with 26 nM bisphosphorylated ITIM-[dPEG4]2-ITSM, 200 µM DiFMUP, pH 7.6, 20 min pre-incubation at room temperature, two or three independent experiments in technical triplicates, read-out: IC50 ± SEM (DiFMUP activity assay).

`CC[C@H](C)[C@H](NC(=O)[C@@H](NC(=O)[C@H](C)NC(=O)[C@H](Cc1ccc(OP(=O)(O)O)cc1)NC(=O)[C@H](CCC(=O)O)NC(=O)[C@@H](NC(=O)[C@H](CCC(N)=O)NC(C)=O)[C@@H](C)O)[C@@H](C)O)C(=O)N[C@@H](CCCCN)C(=O)N[C@@H](Cc1c[nH]cn1)C(=O)N1CCC[C@H]1C(N)=O` [peptide 21] (Ac-QTE[pY]ATIKHP-NH2): the IC50 at full‐length SHP2 [1] (setting [4]) was found to be 1050 ± 502 nM. For the same compound, the “SHP2 phosphatase activity with peptide alone (activation)” value on full‐length SHP2 [2] was “activated SHP2 only minimally at the highest peptide concentration”. For the same compound, the “suitability as substrate of SHP2 (dephosphorylation)” value in assay [3] is listed as “not a good SHP2 substrate”.

Regarding `CC[C@H](C)[C@H](NC(=O)[C@@H](NC(=O)[C@H](C)NC(=O)[C@H](Cc1ccc(C(F)(F)P(=O)(O)O)cc1)NC(=O)[C@H](CCC(=O)O)NC(=O)[C@@H](NC(=O)[C@H](CCC(N)=O)NC(C)=O)[C@@H](C)O)[C@@H](C)O)C(=O)N[C@@H](CCCCN)C(=O)N[C@@H](Cc1c[nH]cn1)C(=O)N1CCC[C@H]1C(N)=O` [peptide 22] (Ac-QTE[F2Pmp]ATIKHP-NH2), on full‐length SHP2 [1], the IC50 is over 51200 nM and the “inhibitory activity against SHP2, in words” value is “loss of inhibitory activity”.

On to `CC[C@H](C)[C@H](NC(=O)[C@@H](NC(=O)[C@H](C)NC(=O)[C@H](Cc1ccc(CP(=O)(O)O)cc1)NC(=O)[C@H](CCC(=O)O)NC(=O)[C@@H](NC(=O)[C@H](CCC(N)=O)NC(C)=O)[C@@H](C)O)[C@@H](C)O)C(=O)N[C@@H](CCCCN)C(=O)N[C@@H](Cc1c[nH]cn1)C(=O)N1CCC[C@H]1C(N)=O` [peptide 23] (Ac-QTE[Pmp]ATIKHP-NH2), for which the “IC50 ± SEM (DiFMUP activity assay)” value at full‐length SHP2 [1] (0.5 nM full-length SHP2 activated with 26 nM bisphosphorylated ITIM-[dPEG4]2-ITSM, 200 µM DiFMUP, pH 7.6, 20 min pre-incubation at room temperature, two or three independent experiments in technical triplicates) was “No inhibition”. At full‐length SHP2 [1], the “inhibitory activity against SHP2, in words” value was “loss of inhibitory activity”.

Regarding `CC[C@H](C)[C@H](NC(=O)[C@@H](NC(=O)[C@H](C)NC(=O)[C@H](Cc1ccc(OC(C(=O)O)C(=O)O)cc1)NC(=O)[C@H](CCC(=O)O)NC(=O)[C@@H](NC(=O)[C@H](CCC(N)=O)NC(C)=O)[C@@H](C)O)[C@@H](C)O)C(=O)N[C@@H](CCCCN)C(=O)N[C@@H](Cc1c[nH]cn1)C(=O)N1CCC[C@H]1C(N)=O` [peptide 24] (Ac-QTEY(X1)ATIKHP-NH2), the IC50 at full‐length SHP2 [1] (setting [4]) is 7820 ± 1950 nM.

As to “PD‐1 ITSM: PD‐1 immunoreceptor tyrosine‐based switch motif phosphopeptide of the authors' earlier work (ref 11) (EQTEYATIVFP; phospho-Tyr5 (pTyr))”, the Kd was 13 nM with SHP2 C‐SH2 domain and 167 nM in the assay with SHP2 N‐SH2 domain.

As usually defined, the IC50 is the midpoint of a concentration-inhibition curve.
